Data: ChEMBL document CHEMBL1143586, “Dimeric zanamivir conjugates with various linking groups are potent, long-lasting inhibitors of influenza neuraminidase including H5N1 avian influenza” (J Med Chem, 2005)
In brackets after ≈: the same amount, converted by molar mass. Several values for one entry are separate records, joined by “and”; a condition that tells them apart may be missing. Equal values may be shown once.

Experiments:
[1] = system: Mus musculus; experiment: Single intranasal effective dose required to inhibit viral replication in the 7-Day mouse efficacy model (Dosed with influenza A/Singapore /1/57); type: functional; settings: inhaled or nasal, 168 h
[2] = Plasma half life in rat after 10 mg/kg oral dosage; type: ADME, organism-based; parameters: dose 10 mg/kg, route oral
[3] = Plasma half life in rat after 2 mg/kg intravenous dosage; type: ADME, organism-based; parameters: dose 2 mg/kg, route intravenous
[4] = system: Influenza A virus
[5] = system: Influenza B virus
[6] = system: Influenza B virus; remark: listed apart in the source
[7] = system: Influenza A virus; remark: listed apart in the source
[8] = system: Influenza A virus; remark: listed apart in the source
[9] = system: Influenza A virus; remark: listed apart in the source
[10] = system: Influenza A virus; remark: listed apart in the source
[11] = system: Influenza A virus; remark: listed apart in the source
[12] = in vivo; settings: rat, plasma
[13] = in vivo; settings: rat
[14] = in vivo; settings: rat, po
[15] = Plasma half life in rat after 0.4 mg/kg intratracheal dosage; type: ADME, organism-based; parameters: dose 0.4 mg/kg, route endotracheal; settings: inhaled or intranasal
[16] = system: Influenza B virus; remark: listed apart in the source
[17] = in vivo; settings: rat, po; remark: listed apart in the source
[18] = in vivo; settings: rat, inhaled or intranasal
[19] = system: Mus musculus; experiment: Single intranasal effective dose required to inhibit viral replication in the 7-Day mouse efficacy model (Dosed with influenza A/Victoria/3/75); type: functional; settings: inhaled or nasal, 168 h
[20] = biological target: Neuraminidase (Influenza A virus (A/Puerto Rico/8/1934(H1N1)), UniProt P03468)
Chain of Neuraminidase (Influenza A virus (A/Puerto Rico/8/1934(H1N1)), UniProt P03468) (P03468 whole entry): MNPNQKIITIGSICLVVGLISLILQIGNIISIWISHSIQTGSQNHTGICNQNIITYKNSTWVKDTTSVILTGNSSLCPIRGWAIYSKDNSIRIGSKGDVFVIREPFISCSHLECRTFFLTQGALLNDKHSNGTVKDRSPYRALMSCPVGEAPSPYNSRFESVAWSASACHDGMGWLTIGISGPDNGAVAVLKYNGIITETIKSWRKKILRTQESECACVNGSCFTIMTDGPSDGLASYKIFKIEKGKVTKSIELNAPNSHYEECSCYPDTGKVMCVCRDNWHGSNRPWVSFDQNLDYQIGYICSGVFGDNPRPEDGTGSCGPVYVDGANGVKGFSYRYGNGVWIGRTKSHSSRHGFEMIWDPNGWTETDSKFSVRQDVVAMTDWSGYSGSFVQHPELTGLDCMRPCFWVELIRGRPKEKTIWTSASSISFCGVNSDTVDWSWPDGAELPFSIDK

[21] = biological target: Neuraminidase (Influenza A virus (A/Puerto Rico/8/1934(H1N1)), UniProt P03468); remark: listed apart in the source
[22] = biological target: Neuraminidase (Influenza A virus (A/Puerto Rico/8/1934(H1N1)), UniProt P03468); remark: listed apart in the source

SMILES	half-life [2]	half-life [3]	EC50 [4]	EC50 [5]	EC50 [6]	EC50 [7]	EC50 [8]	EC50 [9]	EC50 [11]	clearance [12]	Vd [13]	bioavailability [14]	half-life [15]	bioavailability [18]	further results
[H]/N=C(\N)N[C@H]1C=C(C(=O)O)O[C@@H]([C@H](O)[C@H](O)CO)C1NC(C)=O (some centres not stated)	0.25 h	0.4 h	56 ng/mL and > 100 ng/mL	11.5 ng/mL (≈ 34.6 nM)	21 ng/mL (≈ 63.2 nM)	35 ng/mL (≈ 105 nM)	2.4 ng/mL (≈ 7.22 nM)	0.27 ng/mL (≈ 0.812 nM)	2.7 ng/mL (≈ 8.12 nM)	1.42 mL/min/kg	0.03 L/kg	2.7%	–	–	ED90 [1]: 2.92 mg/kg; EC50 [10]: 5.5 ng/mL (≈ 16.6 nM)
COC(=O)C1=C[C@H](N=C(N)N)C(NC(C)=O)[C@H]([C@H](OC(=O)NCCCNC(=O)c2ccc(C(=O)NCCCNC(=O)O[C@H](C(O)CO)[C@@H]3OC(C(=O)O)=C[C@H](N=C(N)N)C3NC(C)=O)cc2)C(O)CO)O1 (some centres not stated)	–	0.4 h	0.02 ng/mL (≈ 0.0198 nM)	–	0.32 ng/mL (≈ 0.317 nM)	0.009 ng/mL (≈ 0.00892 nM)	0.05 ng/mL (≈ 0.0496 nM)	0.06 ng/mL (≈ 0.0595 nM)	0.03 ng/mL (≈ 0.0297 nM)	0.7 mL/min/kg	0.2 L/kg	–	2 h	67%	EC50 [16]: 0.022 ng/mL (≈ 0.0218 nM); bioavailability [17]: < 1%
CC(=O)NC1[C@@H](N=C(N)N)C=C(C(=O)O)O[C@H]1[C@H](OC(=O)NCCCCCCCCCCCCNC(=O)O[C@H](C(O)CO)[C@@H]1OC(C(=O)O)=C[C@H](NC(=N)N)C1NC(C)=O)C(O)CO (some centres not stated)	4.9 h	2.2 h	–	0.05 ng/mL and 0.1 ng/mL	0.37 ng/mL (≈ 0.403 nM)	–	0.032 ng/mL (≈ 0.0349 nM)	–	0.032 ng/mL (≈ 0.0349 nM)	0.7 mL/min/kg	0.2 L/kg	< 1%	5 h	67%	ED90 [19]: 0.03 mg/kg; IC50 [20]: 21.7 nM; IC50 [21]: 7.86 nM; IC50 [22]: 61 nM
